experiment: Human HepG2 cell viability assay in 384 well format; format: toxicity, cell-based; set-up: dose 125 nL, time 70.5 hour; cytotoxicity at 70.5 h: concentration not given beside the values; conditions: HepG2 cells, read-out: Inhibition

| Structure (SMILES) | cytotoxicity at 70.5 h |
| --- | --- |
| COc1ccccc1CNC(=O)CS(=O)(=O)Cc1ccccc1 | -3.93% |
| CN(C)S(=O)(=O)N1CC[C@@H]2CN(Cc3cnn(C)c3)C[C@@H]2C1 | 32.1% |
| O=C(COc1ccccc1)N1CCC[C@]2(C[C@H](OCC3CC3)CO2)C1 | -7.58% |
| CCO[C@@H]1CO[C@@]2(CCCN(C(=O)c3ccc(OC)c(F)c3)C2)C1 | 9.35% |
| CS(=O)(=O)NC[C@]12COC[C@H]1CN(C(=O)c1ccoc1)C2 | -3.34% |
| O=C1CCCN1CC1CN(C(=O)CC2CCCC2)Cc2nccn2C1 (centres undefined) | -8.43% |
| CCC1=N[C@@]2(CC[C@@H]3CN(S(=O)(=O)CC)C[C@@H]32)C(=O)N1CC(C)C | -1.65% |
| O=C(NCC1CC1)C1CN(C(=O)c2ccncc2)CC12CCOCC2 (centres undefined) | 3.6% |
| O=C(NCC1OCCc2cn(CC3CC3)nc21)c1ccsc1 (centres undefined) | 47.4% |
| Cn1cccc1CN1CCC2(CCCN(C(=O)Cc3cccnc3)C2)C1 (centres undefined) | 24.8% |
| c1csc(CN2CC[C@H]3C[C@H](c4ccncn4)O[C@@H]3C2)c1 | -13.1% |
| Cn1cc(C(=O)N2C[C@@H]3COC[C@]3(COCc3cccnc3)C2)cn1 | -12.3% |
| COCCC(=O)N1C[C@@H]2COC[C@]2(COCc2cccnc2)C1 | -13.6% |
| CNC(=O)c1cc2c(nc1NCC1CC1)CCN(S(=O)(=O)C1CC1)CC2 | 2.84% |
| O=C(c1ccc[nH]1)N1CCCC2(CCN(c3ccsc3)C2=O)C1 (centres undefined) | -11.6% |
| O=C(c1ccsc1)N1CC[C@H]2C[C@@H](c3nnc(C4CC4)o3)O[C@@H]2C1 | -12.7% |
| Cc1nn2c(=O)/c(=C\c3cccs3)sc2nc1=O | -5.48% |
| CCn1cc(CN(C)S(=O)(=O)c2ccc(C)c(C)c2)cn1 | 0.0869% |
| COc1ccc(CCC(=O)N(C)Cc2c(C)nn(C)c2C)cc1 | 1.57% |
| CC(C(=O)NC1CCN(C)CC1)n1nc(C(F)(F)F)c(Cl)c1C1CC1 (centres undefined) | 11.6% |
| Cc1nn(CC(=O)Nc2ccon2)cc1Br | -10.2% |
| CCOC1(C)C(=O)c2ccccc2N1Nc1ccccc1C(=O)CC (centres undefined) | -14.4% |
| O=C(CCCC(=O)NCc1cccc(Br)c1)NCCN1CCCC1 | 1.2% |

| Structure (SMILES) | cytotoxicity at 70.5 h |
| --- | --- |
| COc1cc(CNc2ccc(Cl)cc2)ccc1OCC(=O)O | -19.8% |
| O=C(COCC(=O)N(c1ccccc1)c1ccccc1)N1CCCCC1 | 19.2% |
| COc1cc(CNc2ccccc2Cl)ccc1OCC(=O)O | 19% |
| CCN1CCN(S(=O)(=O)c2cc(C)c(C)cc2Br)CC1 | -6.61% |
| CC(C)C(=O)Nc1cccc(C(=O)Nc2ccccn2)c1 | -25.2% |
| Cc1cc(C)cc(NC(=O)Nc2c(O)oc3ccccc3c2=O)c1 | -6.68% |
| CCOC(=O)c1sc(NC(=O)C(C)(C)C)c(C#N)c1C | 41.6% |
| O=C(NCCCN1CCOCC1)c1cccc(OCc2ccccc2)c1 | -2.84% |
| Nc1nnnn1NCc1ccccc1C(F)(F)F | -8.4% |
| CN(C)c1ccc(CC2CCN(c3cnccn3)C2)nn1 (centres undefined) | -8.95% |
| NC(=O)CN1CCCCC1c1ccc(-n2ccnc2)nc1 (centres undefined) | -3.85% |
| Cc1cc(N2CCOC(c3ccncn3)C2)ncn1 (centres undefined) | -0.0886% |
| CN(C)C(=O)c1cccc(C2CCN(c3ncccn3)CC2)n1 | -4.03% |
| Cc1ccnc(NC(=O)c2cncc(C3CCNCC3)n2)c1 | -10.4% |
| COc1ccc(CC2CN(C(=O)c3coc(C)n3)CCO2)cc1 (centres undefined) | -9.96% |
| Cc1nc(C(=O)N2CCOC(Cc3ccc(F)cc3)C2)co1 (centres undefined) | -3.27% |
| CC(=O)N1CCC(c2[nH]ncc2S(C)(=O)=O)CC1 | -5.52% |
| Cc1nccc(CC2COCCN(c3cnccn3)C2)n1 (centres undefined) | 22.7% |
| Cc1c(NC(=O)CN2CCC(Oc3cnccn3)CC2)cnn1C | -3.61% |
| Cc1nonc1CN(C)Cc1cnn(-c2ccc(Cl)cc2)c1 | -3.48% |
| O=C(CC1CCN(CCc2ccccc2)CC1)NC1CCOCC1 | -1.43% |
| O=C(NCc1ccc2c(c1)OCO2)[C@@H]1C=CCN1c1ncccn1 | -1.63% |
| O=C(NCc1ccc2c(c1)OCO2)[C@H]1C=CCN1c1ncccn1 | -4.63% |

| Structure (SMILES) | cytotoxicity at 70.5 h |
| --- | --- |
| Cc1nn(C)cc1C1=NS(=O)(=O)N(C)C(C(=O)Nc2ccc(Cl)cc2)=C1 | 1.32% |
| Cc1cc(-c2ccc(=O)n(C3CCN(C(=O)C4CC4)CC3)n2)c(C)o1 | -2.33% |
| Cc1cccc(Nc2ccc(C3CCCCN3)cn2)n1 (centres undefined) | 4.51% |
| Cc1cc(C)nc(Nc2ccc(C3CCCCN3)cn2)n1 (centres undefined) | 18.8% |
| c1cnc(Nc2ccc(C3CCCCN3)cn2)cn1 (centres undefined) | -5.51% |
| Cc1cc(N2CCC(Cc3ccncc3)C2)ncn1 (centres undefined) | -3.38% |
| CC(C)N1CCC(c2cccc(C(=O)N(C)C)n2)CC1 | 24.4% |
| CN(C)c1ccc(CC2CCCN(c3cnccn3)C2)nn1 (centres undefined) | -6.12% |
| CCn1cc(S(=O)(=O)N2CCCC3(CC=CNC3=O)C2)c(C)n1 (centres undefined) | -1.52% |
| Fc1cc(F)cc(CN2CCC(c3cc4ncccc4cn3)CC2)c1 | 1.34% |
| CCCn1cc(C(=O)NCc2nnc(-c3ccc(C)nc3)o2)c(C)n1 | -1.21% |
| Cc1nc(N(C)C)cc(C2(C)CCNCC2)n1 | -1.8% |
| Cc1nc(C2CCN(C(C)C)CC2)sc1Br | -2.12% |
| CNc1cccc(C2CN(C(=O)CNS(C)(=O)=O)CCO2)n1 (centres undefined) | 13% |
| CCCn1ncc(CN(Cc2cccnc2)Cc2cccs2)c1C | 21.4% |
| Cc1nccnc1CCC1COCCN1C(=O)CCc1c(C)noc1C (centres undefined) | 15.5% |
| O=C(c1ccc(=O)[nH]n1)N1CCCC(O)(CN2CCC(F)(F)CC2)CC1 (centres undefined) | -8.65% |
| COc1ccccc1CN1CCCC(Cc2nccnc2N)C1 (centres undefined) | -8.24% |
| CN(C(=O)c1ccccc1F)[C@@H]1CC[C@@H](O)[C@@H]1O | -5.24% |
| CC(=O)N1CCOC(c2cncc(CCC(=O)N(C)C)n2)C1 (centres undefined) | 5% |
| CC(C)c1nccn1-c1nccnc1C1CCCN1Cc1ccccc1 (centres undefined) | -6.32% |
| C[C@@H]1CN2C[C@H](O)CC2CN1Cc1ccncc1 (some centres undefined) | -3.16% |
| O=C(NCC1(O)COCCN(Cc2cccc(O)c2)C1)c1ccccn1 (centres undefined) | -5.55% |

| Structure (SMILES) | cytotoxicity at 70.5 h |
| --- | --- |
| Cc1cc(N2CCC(Cc3cccnc3)C2)ncn1 (centres undefined) | -3.49% |
| NCc1cnn(-c2ccccc2C(=O)N2CCCC(C(N)=O)C2)c1 (centres undefined) | -2.72% |
| Cc1cc(-c2cncnc2)nc(C2CCCN2S(C)(=O)=O)n1 (centres undefined) | -2.87% |
| CC(C)OCC(=O)N1CCC(c2ncncc2-c2ccnc(N)c2)C1 (centres undefined) | -5.98% |
| CCC(=O)N1CCCC1c1nc(N(C)C)ncc1-c1ccc(Cl)cc1 (centres undefined) | 2.05% |
| Cc1ncsc1CN1CCOC(C)(C(=O)N2CCOCC2)C1 (centres undefined) | -2.94% |
| Cc1cccc(CN2CCCC2c2cncc(Nc3nncs3)n2)c1 (centres undefined) | 2.33% |
| CNc1cc(C2CCCN2C(=O)CCc2ccccc2F)ccn1 (centres undefined) | -2.87% |
| Cc1nc(C)c(C(=O)N2CCCC2(C)C(=O)NC2CCCC2)o1 (centres undefined) | 8.88% |
| O=C1CN(Cc2ccc3ccccc3n2)CCN1C1CCCC1 | -1.73% |
| CCC(=O)N1CCC(c2ncncc2C)CC1 | -1.94% |
| OCC(CO)N1CCC(c2nccnc2Nc2cnccn2)CC1 | -2.76% |
| CC(C)C(C(=O)O)c1cccc(Cl)c1 (centres undefined) | -7.66% |
| CNC(=O)Cc1ccc(NC(=O)NCc2ncc(C)s2)cc1 | 8.85% |
| COc1cc(Br)c(S(=O)(=O)NC(=O)C(C)OC)cc1OC (centres undefined) | -6.11% |
| CCn1cnnc1CCNC(=O)c1ccc(F)c(Br)c1 | -12.1% |
| CCC(=O)c1cccc(S(=O)(=O)NC(C)C#N)c1 (centres undefined) | -11% |
| CN(C)S(=O)(=O)N1CCC(C(O)c2ccc(Cl)cc2)CC1 (centres undefined) | -10.4% |
| CCN(Cc1cccc2c1OCCO2)C(=O)NC(C)(C)C | -2.31% |
| Cc1cc(NC(=O)N2CCC[C@@H]2CO)nn1-c1ccccc1Cl | -7.9% |
| CC(C)Cc1cc(C(=O)N2CCC(N3CCCC3)CC2)cc(O)n1 | -12.3% |
| Cc1cc(NC(=O)N2CCC[C@@H]2CO)nn1-c1cccc(Cl)c1 | -8.23% |
| CC(OCC1CC1)C(=O)Nc1ccn(Cc2ccccc2)n1 (centres undefined) | -7.82% |

| Structure (SMILES) | cytotoxicity at 70.5 h |
| --- | --- |
| O=C(NCCCn1ccnc1)C1COCC(=O)N1Cc1ccccc1 (centres undefined) | -16% |
| COCC1CCN(C(=O)c2cc(O)nc(CC(C)C)c2)CC1 | -7.27% |
| CN1CCCc2cc(-c3cncn3CCNC3CCS(=O)(=O)C3)ccc21 (centres undefined) | -4.36% |
| O=S1(=O)CCC(NCCn2cncc2-c2ccc3c(c2)CCCO3)C1 (centres undefined) | -8.18% |
| c1cncc(CNCc2cccs2)c1 | 26% |
| Fc1ccc(F)c(CN2CCC(c3cc4ncccc4cn3)CC2)c1 | 4.59% |
| Fc1cccc(CN2CCC(c3cc4ncccc4cn3)CC2)c1F | 4.71% |
| NCC1CCC(c2c(C(=O)NCCO)sc3ccccc23)CC1 (centres undefined) | 16.1% |
| CCS(=O)(=O)N1CCc2c(nc(C3CCCN3)nc2NC)C1 (centres undefined) | 18.6% |
| NC(=O)CCc1cccc(C2CCNCC2)n1 | 1.83% |
| COCCNC(=O)C(C)N1CCN(C)CC1 (centres undefined) | -5.18% |
| Cc1cccc(CN2CCC3(CCCN(C(=O)NC4CC4)C3)C2=O)n1 (centres undefined) | 25.5% |
| Cc1ccoc1C(=O)N1C[C@@H]2[C@@H](C1)OCC(=O)N2Cc1cccnc1 | 29.7% |
| c1ccc(N2CCOC3(CCCN(c4nncs4)C3)C2)nc1 (centres undefined) | -2.74% |
| Cc1cccc(CN2CCC3(CCCN(C(=O)c4ccsc4)C3)C2=O)n1 (centres undefined) | 5.46% |
| CNC(=O)c1cc2c(nc1N(C)C)CCN(S(=O)(=O)C1CC1)CC2 | 20.2% |
| O=C(c1cccnc1)N1CCC2(CC1)CCN(c1ccsc1)C2=O | -4.42% |
| Cc1noc([C@H]2C[C@@H]3CCN(CC4CC4)C[C@H]3O2)n1 | -7.86% |
| CNC(=O)c1cc2c(nc1N(C)C)CCN(S(=O)(=O)CC(C)C)CC2 | -12.2% |
| Cn1cc(CN2C[C@@H]3CN(Cc4ccoc4)CCO[C@@H]3C2)cn1 | -3.44% |
| CN1CC(=O)N(c2cccc(F)c2)CC12CCN(Cc1cccnc1)C2 (centres undefined) | 3.06% |
| CCOC(=O)[C@]12CCCN(Cc3nccs3)C[C@H]1CN(CCN(C)C)C2 | -10.1% |
